Assays:
[1] = tested on: Puccinia recondita f. Sp. Tritici; experiment: Fungicidal activity against Puccinia recondita f. sp. tritici / wheat / leaf disc preventative (brown rust); assay type: in vivo; conditions: foliar, 200 ppm in the applied formulation, wheat leaf segments, preventative, compared to untreated control leaf disks, read-out: disease control
Summary of the method: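 Preventative leaf-segment test, wheat cv. Kanzler on water agar. Spray compound at 200 ppm, inoculate with spores 1 day later; 19° C., 75% rh, 12/12 h light. Read-out: % disease control vs untreated, 7 to 9 days after application.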

[2] = tested on: Puccinia recondita f. Sp. Tritici; experiment: Fungicidal activity against Puccinia recondita f. sp. tritici / wheat / leaf disc curative (brown rust); assay type: in vivo; conditions: foliar, 24 h, 200 ppm in the applied formulation, wheat leaf segments, curative (applied 1 day after inoculation), compared to untreated control leaf disks, read-out: disease control
Summary of the method: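 Curative test on wheat leaf segments (cv. Kanzler) on agar, inoculated with spore suspension and held dark at 19° C, 75% RH; formulated compound in water applied 1 day after inoculation. Incubated at 19° C, 75% RH, 12 h light/12 h dark; percent disease control versus untreated scored 6 to 8 days after application.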

Phakopsora Pachyrhizi = experiment: Fungicidal activity against Phakopsora pachyrhizi / soybean / leaf disc preventative (Asian soybean rust); assay type: in vivo; conditions: foliar, 200 ppm in the applied formulation, soybean leaf disks, compared to untreated control leaf disks, read-out: disease control
Summary of the method: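 Preventative soybean leaf-disc test: discs on water agar sprayed with diluted formulated compound, inoculated one day later with spores on the lower surface. Held 24–36 h dark at 20°C, 75% rh, then 12 h light/day; percent disease control versus untreated discs scored 12–14 days after application.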

[3] = tested on: Glomerella lagenarium (Colletotrichum lagenarium); experiment: Fungicidal activity against Glomerella lagenarium (Colletotrichum lagenarium) liquid culture / cucumber / preventative (anthracnose); assay type: cell-based; conditions: Colletotrichum orbiculare; 20 ppm in the applied formulation; liquid culture (PDB), growth inhibition measured photometrically after 3 to 4 days; compared to untreated control; read-out: disease control
Summary of the method: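 Photometric read-out of fungal growth after 2–7 days, expressed as percent antifungal activity versus untreated check. Cryo-stored conidia in PDB; compound at 20 ppm; dark, 24 °C, 96% RH.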

C#CCN(Cc1ccc(-c2noc(C(F)(F)F)n2)cc1)C(=O)C1(C)COC1 [Compound 1.192, 3-methyl-N-prop-2-ynyl-N-[[4-[5-(trifluoromethyl)-1,2,4-oxadiazol-3-yl]phenyl]methyl]-oxetane-3-carboxamide]
≥ 80%: pest or weed control at 200 ppm [1] | pest or weed control at 200 ppm [2] | pest or weed control at 200 ppm (Phakopsora Pachyrhizi) | inhibition of growth at 20 ppm [3]

C#CCN(Cc1ccc(-c2noc(C(F)(F)F)n2)cc1)C(=O)C(CC)COC (stereo not shown) [Compound 1.194, 2-(methoxymethyl)-N-prop-2-ynyl-N-[[4-[5-(trifluoromethyl)-1,2,4-oxadiazol-3-yl]phenyl]methyl]-butanamide]
≥ 80%: pest or weed control at 200 ppm [1] | pest or weed control at 200 ppm [2] | pest or weed control at 200 ppm (Phakopsora Pachyrhizi) | inhibition of growth at 20 ppm [3]

C#CCN(Cc1ccc(-c2noc(C(F)(F)F)n2)cc1)C(=O)CCCOC [Compound 1.196, 4-methoxy-N-prop-2-ynyl-N-[[4-[5-(trifluoromethyl)-1,2,4-oxadiazol-3-yl]phenyl]methyl]-butanamide]
≥ 80%: pest or weed control at 200 ppm [1] | pest or weed control at 200 ppm [2] | pest or weed control at 200 ppm (Phakopsora Pachyrhizi) | inhibition of growth at 20 ppm [3]

C#CCN(Cc1ccc(-c2noc(C(F)(F)F)n2)cc1)C(=O)CC#N [Compound 1.199, 2-cyano-N-prop-2-ynyl-N-[[4-[5-(trifluoromethyl)-1,2,4-oxadiazol-3-yl]phenyl]methyl]-acetamide]
≥ 80%: pest or weed control at 200 ppm [1] | pest or weed control at 200 ppm [2] | pest or weed control at 200 ppm (Phakopsora Pachyrhizi) | inhibition of growth at 20 ppm [3]

C#CCN(Cc1ccc(-c2noc(C(F)(F)F)n2)cc1)C(=O)C1CC1 [Compound 1.201, N-prop-2-ynyl-N-[[4-[5-(trifluoromethyl)-1,2,4-oxadiazol-3-yl]phenyl]methyl]-cyclopropane-carboxamide]
≥ 80%: pest or weed control at 200 ppm [1] | pest or weed control at 200 ppm [2] | pest or weed control at 200 ppm (Phakopsora Pachyrhizi) | inhibition of growth at 20 ppm [3]

C#CCN(Cc1ccc(-c2noc(C(F)(F)F)n2)cc1)C(=O)c1ccccc1 [Compound 1.202, N-prop-2-ynyl-N-[[4-[5-(trifluoromethyl)-1,2,4-oxadiazol-3-yl]phenyl]methyl]-benzamide]
≥ 80%: pest or weed control at 200 ppm [1] | pest or weed control at 200 ppm [2] | pest or weed control at 200 ppm (Phakopsora Pachyrhizi) | inhibition of growth at 20 ppm [3]

CC(C)C(=O)N(Cc1ccc(-c2noc(C(F)(F)F)n2)cc1)CC1CC1 [Compound 1.206, N-(cyclopropylmethyl)-2-methyl-N-[[4-[5-(trifluoromethyl)-1,2,4-oxadiazol-3-yl]phenyl]methyl]-propanamide]
≥ 80%: pest or weed control at 200 ppm [1] | pest or weed control at 200 ppm [2] | pest or weed control at 200 ppm (Phakopsora Pachyrhizi) | inhibition of growth at 20 ppm [3]

O=C(C1CCOC1)N(Cc1ccc(-c2noc(C(F)(F)F)n2)cc1)CC1CC1 (stereo not shown) [Compound 1.215, N-(cyclopropylmethyl)-N-[[4-[5-(trifluoromethyl)-1,2,4-oxadiazol-3-yl]phenyl]methyl]-tetrahydrofuran-3-carboxamide]
≥ 80%: pest or weed control at 200 ppm [1] | pest or weed control at 200 ppm [2] | pest or weed control at 200 ppm (Phakopsora Pachyrhizi) | inhibition of growth at 20 ppm [3]

O=C(C1CSC1)N(Cc1ccc(-c2noc(C(F)(F)F)n2)cc1)CC1CC1 [Compound 1.216, N-(cyclopropylmethyl)-N-[[4-[5-(trifluoromethyl)-1,2,4-oxadiazol-3-yl]phenyl]methyl]-thietane-3-carboxamide]
≥ 80%: pest or weed control at 200 ppm [1] | pest or weed control at 200 ppm [2] | pest or weed control at 200 ppm (Phakopsora Pachyrhizi) | inhibition of growth at 20 ppm [3]

COCCC(=O)N(Cc1ccc(-c2noc(C(F)(F)F)n2)cc1)CC1CC1 [Compound 1.217, N-(cyclopropylmethyl)-3-melhoxy-N-[[4-[5-(trifluoromethyl)-1,2,4-oxadiazol-3-yl]phenyl]methyl]-propanamide]
≥ 80%: pest or weed control at 200 ppm [1] | pest or weed control at 200 ppm [2] | pest or weed control at 200 ppm (Phakopsora Pachyrhizi) | inhibition of growth at 20 ppm [3]

CC1CC1C(=O)N(Cc1ccc(-c2noc(C(F)(F)F)n2)cc1)CC1CC1 (stereo not shown) [Compound 1.223, N-(cyclopropylmethyl)-2-methyl-N-[[4-[5-(trifluoromethyl)-1,2,4-oxadiazol-3-yl]phenyl]methyl]-cyclopropane-carboxamide]
≥ 80%: pest or weed control at 200 ppm [1] | pest or weed control at 200 ppm [2] | pest or weed control at 200 ppm (Phakopsora Pachyrhizi) | inhibition of growth at 20 ppm [3]

CC1(C(=O)N(Cc2ccc(-c3noc(C(F)(F)F)n3)cc2)CC2CC2)CC1 [Compound 1.226, N-(cyclopropylmethyl)-1-methyl-N-[[4-[5-(trifluoromethyl)-1,2,4-oxadiazol-3-yl]phenyl]methyl]-cyctopropane-carboxamide]
≥ 80%: pest or weed control at 200 ppm [1] | pest or weed control at 200 ppm [2] | pest or weed control at 200 ppm (Phakopsora Pachyrhizi) | inhibition of growth at 20 ppm [3]

CCC(=O)N(Cc1ccc(-c2noc(C(F)(F)F)n2)cc1)CC1CC1 [Compound 1.227, N-(cyclopropylmethyl)-N-[[4-[5-(trifluoromethyl)-1,2,4-oxadiazol-3-yl]phenyl]methyl]-propanamide]
≥ 80%: pest or weed control at 200 ppm [1] | pest or weed control at 200 ppm [2] | pest or weed control at 200 ppm (Phakopsora Pachyrhizi) | inhibition of growth at 20 ppm [3]

C=C(C)C(=O)N(Cc1ccc(-c2noc(C(F)(F)F)n2)cc1)CC1CC1 [Compound 1.229, N-(cyclopropylmethyl)-2-methyl-N-[[4-[5-(trifluoromethyl)-1,2,4-oxadiazol-3-yl]phenyl]methyl]-prop-2-enamide]
≥ 80%: pest or weed control at 200 ppm [1] | pest or weed control at 200 ppm [2] | pest or weed control at 200 ppm (Phakopsora Pachyrhizi) | inhibition of growth at 20 ppm [3]

O=C(C1CCSCC1)N(Cc1ccc(-c2noc(C(F)(F)F)n2)cc1)CC1CC1 [Compound 1.230, N-(cyclopropylmethyl)-N-[[4-[5-(trifluoromethyl)-1,2,4-oxadiazol-3-yl]phenyl]methyl]-tetrahydrothiopyran-4-carboxamide]
≥ 80%: pest or weed control at 200 ppm [1] | pest or weed control at 200 ppm [2] | pest or weed control at 200 ppm (Phakopsora Pachyrhizi) | inhibition of growth at 20 ppm [3]

CCC(C)C(=O)N(Cc1ccc(-c2noc(C(F)(F)F)n2)cc1)CC1CC1 (stereo not shown) [Compound 1.233, N-(cyclopropylmethyl)-2-methyl-N-[[4-[5-(trifluoromethyl)-1,2,4-oxadiazol-3-yl]phenyl]methyl]-butanamide]
≥ 80%: pest or weed control at 200 ppm [1] | pest or weed control at 200 ppm [2] | pest or weed control at 200 ppm (Phakopsora Pachyrhizi) | inhibition of growth at 20 ppm [3]

CC1(C(=O)N(Cc2ccc(-c3noc(C(F)(F)F)n3)cc2)CC2CC2)COC1 [Compound 1.235, N-(cyclopropylmethyl)-3-methyl-N-[[4-[5-(trifluoromethyl)-1,2,4-oxadiazol-3-yl]phenyl]methyl]-oxetane-3-carboxamide]
≥ 80%: pest or weed control at 200 ppm [1] | pest or weed control at 200 ppm [2] | pest or weed control at 200 ppm (Phakopsora Pachyrhizi) | inhibition of growth at 20 ppm [3]

O=C(C1CCCO1)N(Cc1ccc(-c2noc(C(F)(F)F)n2)cc1)CC1CC1 (stereo not shown) [Compound 1.242, N-(cyclopropylmethyl)-N-[[4-[5-(trifluoromethyl)-1,2,4-oxadiazol-3-yl]phenyl]methyl]-tetrahydrofuran-2-carboxamide]
≥ 80%: pest or weed control at 200 ppm [1] | pest or weed control at 200 ppm [2] | pest or weed control at 200 ppm (Phakopsora Pachyrhizi) | inhibition of growth at 20 ppm [3]

N#CCC(=O)N(Cc1ccc(-c2noc(C(F)(F)F)n2)cc1)CC1CC1 [Compound 1.243, 2-cyano-N-(cyclopropylmethyl)-N-[[4-[5-(trifluoromethyl)-1,2,4-oxadiazol-3-yl]phenyl]methyl]-acetamide]
≥ 80%: pest or weed control at 200 ppm [1] | pest or weed control at 200 ppm [2] | pest or weed control at 200 ppm (Phakopsora Pachyrhizi) | inhibition of growth at 20 ppm [3]

N#CC1(C(=O)N(Cc2ccc(-c3noc(C(F)(F)F)n3)cc2)CC2CC2)CC1 [Compound 1.244, 1-cyano-N-(cyclopropylmethyl)-N-[[4-[5-(trifluoromethyl)-1,2,4-oxadiazol-3-yl]phenyl]methyl]-cyclopropane-carboxamide]
≥ 80%: pest or weed control at 200 ppm [1] | pest or weed control at 200 ppm [2] | pest or weed control at 200 ppm (Phakopsora Pachyrhizi) | inhibition of growth at 20 ppm [3]

COC(C)C(=O)N(Cc1ccc(-c2noc(C(F)(F)F)n2)cc1)CC1CC1 (stereo not shown) [Compound 1.245, N-(cyclopropylmethyl)-2-methoxy-N-[[4-[5-(trifluoromethyl)-1,2,4-oxadiazol-3-yl]phenyl]methyl]-propanamide]
≥ 80%: pest or weed control at 200 ppm [1] | pest or weed control at 200 ppm [2] | pest or weed control at 200 ppm (Phakopsora Pachyrhizi) | inhibition of growth at 20 ppm [3]

COCC(=O)N(OC)C(C)c1ccc(-c2noc(C(F)(F)F)n2)cc1 (stereo not shown) [Compound 1.253, N,2-dimethoxy-N-(1-[4-[5-(trifluoromethyl)-1,2,4-oxadiazol-3-yl]phenyl]ethyl]-acetamide]
≥ 80%: pest or weed control at 200 ppm [1] | pest or weed control at 200 ppm [2] | pest or weed control at 200 ppm (Phakopsora Pachyrhizi) | inhibition of growth at 20 ppm [3]

— patent publication US11180462B2, “Microbiocidal oxadiazole derivatives” (SYNGENTA PARTICIPATIONS AG, priority 2015, dated 2021)
